In patent publication US10391080B2, “Ketorolac for the treatment of cancer” (Cipla Limited, priority 2016, dated 2019):
Like-named read-outs stand apart in the source and are kept apart here.

Tests used:
[1] = test system: 10 human tumor xenograft-derived cell suspensions or tumor cell lines of renal cancer; experiment: In vitro 3D assay, clonogenic assay, whole panel; format: cell-based; conditions: geometric mean of 10 renal tumor models, 3D colony formation
Description: (§1) Ketorolac was characterized for its ability to inhibit anchorage independent growth and ex vivo colony formation of tumor cells in semi-solid medium. The compound was tested against 10 human tumor xenograft-derived cell suspensions or tumor cell lines of renal cancer.
(§2) Cell lines were routinely passaged one or twice weekly. […] The percentage of viable cells was determined in a Neubauer-hemocytometer using trypan blue exclusion.
(§3) Tumor xenografts (patient-derived, as well as cell line-derived xenografts) were passaged as subcutaneous xenografts in NMRI nu/nu mice. At a tumor volume of 400-1000 mm^3 tumor-bearing mice were sacrificed and tumors were collected under sterile conditions without delay according to the relevant Oncotest SOPs and the relevant animal welfare guidelines published by the FELASA and the GV-SOLAS. […] The percentage of viable cells was determined in a Neubauer-hemocytometer using trypan blue exclusion. Aliquots of the cells were frozen down, and stored in liquid nitrogen. On each day of an experiment, a frozen aliquot of tumor cells was thawed and used for preparation of assay plates.
(§4) The clonogenic assay was carried out in a 96 well plate format using ultra low attachment plates. […] Every plate included six untreated control wells and drug-treated groups in duplicate at 9 concentrations. […] At the time of maximum colony formation, counts were performed with an automatic image analysis system (Celllnsight NXT, Thermo Scientific). 48 hours prior to evaluation, vital colonies were stained with a sterile aqueous solution of 2-(4-iodophenyl)-3-(4-nitrophenyl)-5-phenyltetrazolium chloride (1 mg/ml, 100 μl/well).

RXF 1781L = experiment: In vitro 3D assay, clonogenic assay (colony formation in semi-solid medium); format: cell-based; conditions: Homo sapiens, 3D colony formation, continuous exposure 8 to 13 days
Description: as §1, §2, §3, §4

RXF 486L = experiment: as above; format: cell-based; conditions: Homo sapiens, 3D colony formation, continuous exposure 8 to 13 days
Description: as §1, §2, §3, §4

A-498 cells = experiment: as above; format: cell-based; conditions: Homo sapiens, A498, A-498, 3D colony formation, continuous exposure 8 to 13 days
Description: as §1, §2, §3, §4

RXF 1220L = experiment: as above; format: cell-based; conditions: Homo sapiens, 3D colony formation, continuous exposure 8 to 13 days
Description: as §1, §2, §3, §4

RXF 393L = experiment: as above; format: cell-based; conditions: Homo sapiens, 3D colony formation, continuous exposure 8 to 13 days
Description: as §1, §2, §3, §4

RXF 1183L = experiment: as above; format: cell-based; conditions: Homo sapiens, 3D colony formation, continuous exposure 8 to 13 days
Description: as §1, §2, §3, §4

ACHN = experiment: as above; format: cell-based; conditions: Homo sapiens, 3D colony formation, continuous exposure 8 to 13 days
Description: as §1, §2, §3, §4

786-O = experiment: as above; format: cell-based; conditions: Homo sapiens, 786-0, 3D colony formation, continuous exposure 8 to 13 days
Description: as §1, §2, §3, §4

Caki-1 = experiment: as above; format: cell-based; conditions: Homo sapiens, Caki-1, 3D colony formation, continuous exposure 8 to 13 days
Description: as §1, §2, §3, §4

SN12C = experiment: as above; format: cell-based; conditions: Homo sapiens, 3D colony formation, continuous exposure 8 to 13 days
Description: as §1, §2, §3, §4

A498 cells = experiment: In vivo animal efficacy study, subcutaneous A498 tumor fragments; set-up: species or system female athymic nude mice
Description: 10 Healthy female athymic nude mice were recruited for the donor cell inoculation. Animals were subcutaneously injected at flank region with 10 million A498 cells suspended in 200 μl of media and matrigel. Animals were monitored for solid tumor growth. […] Tumors were fragmented in to ˜30 mg size. […] [table] The tumor sizes were measured weekly twice from the date of tumor appearance till the end of the experiment. Tumor size was measured by digital vernier caliper (MITUTOYO) by measuring length (L=longest axis) and width (W=shortest axis). Tumor Volume was calculated using the formula: […] Form the tumor volume data mean tumor volume and % tumor growth inhibition (% TGI) were calculated (SEM=standard error of mean).

Par-4 = experiment: PAR-4 activity, Western blot of cell supernatant and lysate; format: cell-based; conditions: normal mouse embryonic fibroblast cells, 25 μM, 18-21 h, cell supernatant, dose dependent
Description: Mouse embryonic fibroblast cells were harvested from exponential phase cultures. After a 24 h recovery period to allow the cells to resume exponential growth the cells were treated with 25 μM of ketorolac followed by further 18-21 h of incubation. Induction of Par-4 was checked in the cell supernatant and cell lysate by subjecting the samples to Western blot analysis with antibodies specific for Par-4. The samples were also subjected to SDS/PAGE and Coomassie blue staining to determine albumin levels in serum from the CM as another loading control.

[2] = Ketorolac 5 mg/kg p.o. q.d. × 21 (G3), day 1
[3] = Ketorolac 5 mg/kg p.o. q.d. × 21 (G3), day 6
[4] = Ketorolac 5 mg/kg p.o. q.d. × 21 (G3), day 9
[5] = Ketorolac 5 mg/kg p.o. q.d. × 21 (G3), day 13
[6] = Ketorolac 5 mg/kg p.o. q.d. × 21 (G3), day 16
[7] = Ketorolac 10 mg/kg p.o. q.d. × 21 (G4), day 1
[8] = Ketorolac 10 mg/kg p.o. q.d. × 21 (G4), day 6
[9] = Ketorolac 10 mg/kg p.o. q.d. × 21 (G4), day 9
[10] = Ketorolac 10 mg/kg p.o. q.d. × 21 (G4), day 13
[11] = Ketorolac 10 mg/kg p.o. q.d. × 21 (G4), day 16

O=C(c1ccccc1)c1ccc2n1CCC2C(=O)O (racemic) [Ketorolac, (±)-5-benzoyl-2,3-dihydro-1H-pyrrolizine-1-carboxylic acid]
IC50 ([1]; Homo sapiens, read-out: Absolute IC50, geometric mean): 2040 µM | IC50 ([1]; Homo sapiens, read-out: Relative IC50, geometric mean (mean relative IC50)): 2040 µM | IC50 ([1]; read-out: Relative IC50, geometric mean (mean relative IC50)): 2080 µM | IC50 (RXF 1781L; read-out: Absolute IC50): 1900 µM | IC50 (RXF 1781L; read-out: Relative IC50): 2040 µM | IC50 (RXF 486L; read-out: Absolute IC50): 2680 µM | IC50 (RXF 486L; read-out: Relative IC50): 2610 µM | IC50 (A-498 cells; read-out: Absolute IC50): 279 µM | IC50 (A-498 cells; read-out: Relative IC50): 279 µM | IC50 (RXF 1220L; read-out: Absolute IC50): 1770 µM | IC50 (RXF 1220L; read-out: Relative IC50): 1750 µM | IC50 (RXF 393L; read-out: Absolute IC50): 2830 µM | IC50 (RXF 393L; read-out: Relative IC50): 2730 µM | IC50 (RXF 1183L; read-out: Absolute IC50): 1550 µM | IC50 (RXF 1183L; read-out: Relative IC50): 1490 µM | IC50 (ACHN; read-out: Absolute IC50): 3140 µM | IC50 (ACHN; read-out: Relative IC50): 3250 µM | IC50 (786-O; read-out: Absolute IC50): 3840 µM | IC50 (786-O; read-out: Relative IC50): 4200 µM | IC50 (Caki-1; read-out: Absolute IC50): 3680 µM | IC50 (Caki-1; read-out: Relative IC50): 3750 µM | IC50 (SN12C; read-out: Absolute IC50): 2590 µM | IC50 (SN12C; read-out: Relative IC50): 2640 µM | Mean Tumor Volume (A498 cells; [2]): 145.65 mm^3 | Tumor Growth Inhibition (% TGI) (A498 cells; [2]): 1.29% | Mean Tumor Volume (A498 cells; [3]): 174.13 mm^3 | Tumor Growth Inhibition (% TGI) (A498 cells; [3]): 47.54% | Mean Tumor Volume (A498 cells; [4]): 297.42 mm^3 | Tumor Growth Inhibition (% TGI) (A498 cells; [4]): 35.87% | Mean Tumor Volume (A498 cells; [5]): 460.01 mm^3 | Tumor Growth Inhibition (% TGI) (A498 cells; [5]): 25.45% | Mean Tumor Volume (A498 cells; [6]): 559.69 mm^3 | Tumor Growth Inhibition (% TGI) (A498 cells; [6]): 41.77% | Mean Tumor Volume (A498 cells; Ketorolac 5 mg/kg p.o. q.d. × 21 (G3), day 20): 626.62 mm^3 | Mean Tumor Volume (A498 cells; [7]): 145.79 mm^3 | Tumor Growth Inhibition (% TGI) (A498 cells; [7]): 1.20% | Mean Tumor Volume (A498 cells; [8]): 168.10 mm^3 | Tumor Growth Inhibition (% TGI) (A498 cells; [8]): 49.36% | Mean Tumor Volume (A498 cells; [9]): 223.78 mm^3 | Tumor Growth Inhibition (% TGI) (A498 cells; [9]): 51.75% | Mean Tumor Volume (A498 cells; [10]): 215.58 mm^3 | Tumor Growth Inhibition (% TGI) (A498 cells; [10]): 65.06% | Mean Tumor Volume (A498 cells; [11]): 300.44 mm^3 | Tumor Growth Inhibition (% TGI) (A498 cells; [11]): 68.75% | Mean Tumor Volume (A498 cells; Ketorolac 10 mg/kg p.o. q.d. × 21 (G4), day 20): 336.27 mm^3 | Induction of Par-4 secretion (Par-4): robust Par-4 secretion
